Assay results: ChEMBL document CHEMBL3997816, “Discovery and characterization of [(cyclopentyl)ethyl]benzoic acid inhibitors of microsomal prostaglandin E synthase-1” (Bioorg Med Chem Lett, 2017); call rule not given here

Tests used:
Prostaglandin E synthase [1] = target: T1, Prostaglandin E synthase (Homo sapiens, UniProt O14684); assay: Inhibition of human mPGES1 expressed in HEK293 microsomes assessed as reduction in PGE2 production using PGH2 as substrate after 2.5 mins by LC-MS analysis
T1 sequence (O14684 whole entry): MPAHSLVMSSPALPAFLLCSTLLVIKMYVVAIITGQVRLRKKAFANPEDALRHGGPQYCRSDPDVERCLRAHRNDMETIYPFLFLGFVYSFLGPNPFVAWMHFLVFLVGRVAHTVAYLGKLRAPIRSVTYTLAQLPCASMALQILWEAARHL

[2] = target: T2, Prostaglandin E synthase (Homo sapiens) (UniProt O14684); assay: (§1) Inhibition of mPGES1 in human whole blood assessed as reduction in LPS-induced PGE2 production preincubated for 30 mins followed by LPS addition measured after 20 to 24 hrs by LC-MS analysis
T2 sequence (whole entry): T1 sequence (O14684 whole entry)

Prostaglandin E synthase [3] = target: T1, Prostaglandin E synthase; assay: as §1
[4] = Clearance in rat at 1 mg/kg, iv; type: ADME, organism-based; details: in vivo
CYP2C9 = CYP2C9 (Homo sapiens, UniProt P11712); assay: Inhibition of CYP2C9 (unknown origin) in microsomes at 10 uM relative to control; type: ADME
Sequence of CYP2C9 (P11712 whole entry): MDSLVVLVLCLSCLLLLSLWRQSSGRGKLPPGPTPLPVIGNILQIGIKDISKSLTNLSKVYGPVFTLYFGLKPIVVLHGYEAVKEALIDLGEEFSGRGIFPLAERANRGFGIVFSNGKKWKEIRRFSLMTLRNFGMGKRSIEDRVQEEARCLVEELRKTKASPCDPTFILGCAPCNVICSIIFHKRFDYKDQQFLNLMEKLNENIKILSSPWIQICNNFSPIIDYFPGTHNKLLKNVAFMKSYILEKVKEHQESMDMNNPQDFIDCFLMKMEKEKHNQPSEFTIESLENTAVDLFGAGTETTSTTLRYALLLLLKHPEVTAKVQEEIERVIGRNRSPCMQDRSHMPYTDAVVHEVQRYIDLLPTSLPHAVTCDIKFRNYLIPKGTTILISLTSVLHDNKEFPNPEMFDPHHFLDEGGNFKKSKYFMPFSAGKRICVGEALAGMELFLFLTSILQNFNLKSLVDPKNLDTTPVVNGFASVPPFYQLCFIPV

[5] = target: T3, Prostaglandin G/H synthase 1 (Homo sapiens, UniProt P23219); assay: Inhibition of COX1 in human whole blood assessed as effect on LPS-induced TXB2 level preincubated for 30 mins followed by LPS addition measured after 20 to 24 hrs by LC-MS analysis
T3 sequence (P23219 whole entry): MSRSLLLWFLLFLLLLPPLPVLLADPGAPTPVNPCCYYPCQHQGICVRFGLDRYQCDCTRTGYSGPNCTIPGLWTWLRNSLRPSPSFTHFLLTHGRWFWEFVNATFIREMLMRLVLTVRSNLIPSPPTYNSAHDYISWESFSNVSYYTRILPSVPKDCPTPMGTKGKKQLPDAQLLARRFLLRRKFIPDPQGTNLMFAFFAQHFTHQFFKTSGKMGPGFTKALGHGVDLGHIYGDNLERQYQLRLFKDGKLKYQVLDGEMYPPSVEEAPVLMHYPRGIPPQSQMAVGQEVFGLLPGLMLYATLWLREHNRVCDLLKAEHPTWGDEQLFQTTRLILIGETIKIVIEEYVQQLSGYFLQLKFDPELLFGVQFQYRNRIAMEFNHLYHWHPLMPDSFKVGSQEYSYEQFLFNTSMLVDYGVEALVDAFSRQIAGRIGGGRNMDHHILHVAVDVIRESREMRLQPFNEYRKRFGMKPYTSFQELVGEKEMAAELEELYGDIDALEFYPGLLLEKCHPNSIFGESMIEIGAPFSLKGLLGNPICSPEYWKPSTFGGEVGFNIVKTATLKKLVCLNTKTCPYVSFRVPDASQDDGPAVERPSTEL

[6] = target: T3, Prostaglandin G/H synthase 1; assay: Inhibition of COX1 in human whole blood assessed as effect on LPS-induced PGF2alpha level preincubated for 30 mins followed by LPS addition measured after 20 to 24 hrs by LC-MS analysis
Prostaglandin E synthase [7] = target: T1, Prostaglandin E synthase; assay: Inhibition of mPGES1 in human A549 cells assessed as reduction in IL-1beta-induced PGE2 production preincubated for 30 mins followed by IL-1beta addition measured after 18 hrs by enzyme immunoassay; type: cell-based
[8] = target: T4, Prostaglandin G/H synthase 2 (Homo sapiens, UniProt P35354); assay: Inhibition of COX2 in human A549 cells assessed as reduction in IL-1beta-induced PGI2 production preincubated for 30 mins followed by IL-1beta addition measured after 18 hrs by enzyme immunoassay; type: cell-based; details: a549, 18 h
T4 sequence (P35354 whole entry): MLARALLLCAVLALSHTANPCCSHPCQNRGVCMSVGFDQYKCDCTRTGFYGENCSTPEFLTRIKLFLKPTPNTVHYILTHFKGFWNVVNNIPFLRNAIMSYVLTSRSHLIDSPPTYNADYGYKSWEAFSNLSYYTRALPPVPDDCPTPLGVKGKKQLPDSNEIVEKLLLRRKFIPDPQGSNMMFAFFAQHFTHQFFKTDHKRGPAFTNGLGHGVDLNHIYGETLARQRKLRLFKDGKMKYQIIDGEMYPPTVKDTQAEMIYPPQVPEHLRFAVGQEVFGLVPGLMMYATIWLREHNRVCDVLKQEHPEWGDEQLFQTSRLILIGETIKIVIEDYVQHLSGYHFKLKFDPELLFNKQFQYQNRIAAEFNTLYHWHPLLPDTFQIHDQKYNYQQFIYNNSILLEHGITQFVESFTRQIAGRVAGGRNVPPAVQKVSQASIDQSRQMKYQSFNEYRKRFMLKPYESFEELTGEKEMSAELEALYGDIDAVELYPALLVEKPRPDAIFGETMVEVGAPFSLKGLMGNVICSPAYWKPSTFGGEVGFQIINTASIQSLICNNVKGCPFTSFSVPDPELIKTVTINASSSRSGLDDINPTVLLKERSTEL

[9] = target: T4, Prostaglandin G/H synthase 2; assay: Inhibition of COX2 in human A549 cells assessed as reduction in IL-1beta-induced PGI2 production up to 10 uM preincubated for 30 mins followed by IL-1beta addition measured after 18 hrs by enzyme immunoassay; type: cell-based; details: a549, 18 h
[10] = target: T3, Prostaglandin G/H synthase 1; assay: Inhibition of COX1 in human whole blood assessed as effect on LPS-induced TXB2 level up to 10 uM preincubated for 30 mins followed by LPS addition measured after 20 to 24 hrs by LC-MS analysis
[11] = target: T3, Prostaglandin G/H synthase 1; assay: Inhibition of COX1 in human whole blood assessed as effect on LPS-induced PGF2alpha level up to 10 uM preincubated for 30 mins followed by LPS addition measured after 20 to 24 hrs by LC-MS analysis
[12] = target: T5, Prostaglandin G/H synthase 1 (Ovis aries, UniProt P05979); assay: Inhibition of ovine COX1 assessed as reduction in PGF2alpha production at 10 uM using arachidonic acid as substrate by colorimetric method; details: sheep
T5 sequence (P05979 whole entry): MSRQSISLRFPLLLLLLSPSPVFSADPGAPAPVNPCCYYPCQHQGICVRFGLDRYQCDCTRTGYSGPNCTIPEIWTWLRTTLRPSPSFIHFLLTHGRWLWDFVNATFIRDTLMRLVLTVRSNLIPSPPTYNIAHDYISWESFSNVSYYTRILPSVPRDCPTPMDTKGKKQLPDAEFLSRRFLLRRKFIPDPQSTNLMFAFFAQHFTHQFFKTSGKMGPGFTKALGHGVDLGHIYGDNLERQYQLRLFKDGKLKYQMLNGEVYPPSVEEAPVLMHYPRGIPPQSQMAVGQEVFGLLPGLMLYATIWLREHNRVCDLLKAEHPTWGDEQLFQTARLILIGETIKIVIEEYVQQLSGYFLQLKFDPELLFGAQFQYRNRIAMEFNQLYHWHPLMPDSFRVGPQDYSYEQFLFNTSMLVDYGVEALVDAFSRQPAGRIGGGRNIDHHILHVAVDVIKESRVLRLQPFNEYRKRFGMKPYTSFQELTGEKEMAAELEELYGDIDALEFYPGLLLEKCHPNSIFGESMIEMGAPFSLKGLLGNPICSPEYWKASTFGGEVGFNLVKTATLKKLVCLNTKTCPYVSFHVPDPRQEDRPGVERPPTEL

[13] = target: T4, Prostaglandin G/H synthase 2; assay: Inhibition of human COX2 assessed as reduction in PGF2alpha production at 10 uM using arachidonic acid as substrate by colorimetric method
[14] = Selectivity index, ratio of compound effect for inhibition of human mPGES1 expressed in HEK293 microsomes to compound effect for inhibition of ovine COX1
Homo sapiens = organism: Homo sapiens; assay: Selectivity index, ratio of compound effect for inhibition of human mPGES1 expressed in HEK293 microsomes to compound effect for inhibition of human COX2
[15] = target: Voltage-gated inwardly rectifying potassium channel KCNH2 (Homo sapiens, UniProt Q12809); assay: Inhibition of human ERG expressed in CHO cells at 10 uM by automated patch clamp method; type: cell-based
Sequence of Voltage-gated inwardly rectifying potassium channel KCNH2 (Q12809 whole entry): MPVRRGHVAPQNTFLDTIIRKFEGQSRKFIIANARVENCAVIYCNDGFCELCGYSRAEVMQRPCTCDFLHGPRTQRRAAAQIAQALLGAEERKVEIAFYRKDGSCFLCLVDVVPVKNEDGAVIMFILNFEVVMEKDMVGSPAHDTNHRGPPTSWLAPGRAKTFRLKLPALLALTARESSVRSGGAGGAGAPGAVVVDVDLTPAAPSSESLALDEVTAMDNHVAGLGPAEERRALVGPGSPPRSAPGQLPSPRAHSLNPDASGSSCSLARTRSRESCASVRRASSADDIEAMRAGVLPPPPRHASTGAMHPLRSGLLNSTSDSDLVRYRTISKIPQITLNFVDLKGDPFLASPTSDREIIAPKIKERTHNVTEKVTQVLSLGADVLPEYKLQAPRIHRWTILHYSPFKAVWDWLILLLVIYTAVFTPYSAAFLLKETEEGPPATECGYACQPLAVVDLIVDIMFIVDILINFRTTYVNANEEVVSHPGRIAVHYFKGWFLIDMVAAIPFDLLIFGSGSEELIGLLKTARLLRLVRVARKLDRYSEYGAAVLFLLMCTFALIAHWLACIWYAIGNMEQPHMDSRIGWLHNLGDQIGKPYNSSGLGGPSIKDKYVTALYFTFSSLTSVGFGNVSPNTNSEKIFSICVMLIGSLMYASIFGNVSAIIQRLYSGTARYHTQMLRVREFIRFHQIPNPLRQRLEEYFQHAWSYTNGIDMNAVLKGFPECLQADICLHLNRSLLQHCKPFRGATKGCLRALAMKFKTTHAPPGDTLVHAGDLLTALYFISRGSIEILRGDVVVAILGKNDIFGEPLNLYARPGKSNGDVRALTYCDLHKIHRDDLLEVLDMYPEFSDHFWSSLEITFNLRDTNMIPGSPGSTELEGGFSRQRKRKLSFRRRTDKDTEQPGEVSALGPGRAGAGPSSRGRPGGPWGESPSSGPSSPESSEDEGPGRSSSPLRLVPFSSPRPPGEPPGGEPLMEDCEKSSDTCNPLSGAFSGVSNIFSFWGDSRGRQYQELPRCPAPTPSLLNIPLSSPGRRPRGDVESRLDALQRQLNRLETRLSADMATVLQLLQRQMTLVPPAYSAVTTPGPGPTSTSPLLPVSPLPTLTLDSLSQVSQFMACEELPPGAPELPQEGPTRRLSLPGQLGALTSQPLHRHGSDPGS

[16] = Clearance in dog at 1 mg/kg, iv; type: ADME, organism-based, Canis lupus familiaris; details: in vivo
[17] = Volume of distribution at steady state in rat at 1 mg/kg, iv; type: ADME, organism-based; details: in vivo, read-out: Vdss
[18] = Volume of distribution at steady state in dog at 1 mg/kg, iv; type: ADME, organism-based, Canis lupus familiaris; details: in vivo, read-out: Vdss
[19] = Cmax in rat at 5 mg/kg, po; type: ADME, organism-based; design: dose 5 mg/kg, route oral; details: in vivo
[20] = Cmax in dog at 5 mg/kg, po; type: ADME, organism-based, Canis lupus familiaris; design: dose 5 mg/kg, route oral; details: in vivo
[21] = Oral bioavailability in rat at 5 mg/kg; type: ADME, organism-based; details: in vivo
Rattus norvegicus = assay: Time at which plasma concentration stays above human whole blood IC80 level in rat at 5 mg/kg, po administered as single dose
Canis familiaris = assay: Time at which plasma concentration stays above human whole blood IC80 level in dog at 3 mg/kg, po administered as single dose; design: species or system Canis lupus familiaris
[22] = Oral bioavailability in dog at 3 mg/kg; details: in vivo

| SMILES | IC50 (Prostaglandin E synthase [1]) [nM] | IC80 [2] [nM] | IC50 (Prostaglandin E synthase [3]) [nM] | clearance [4] [mL/min/kg] | inhibition at 10 µM (CYP2C9) [%] | other results |
| --- | --- | --- | --- | --- | --- | --- |
| O=C(O)c1ccc(Cl)cc1NC[C@@H]1CCC[C@@H]1NC(=O)C1CCN(c2ccc(C(F)(F)F)cc2)CC1 | 4 | 8 | 3 | 40 | 71 | inhibition (INH) [5]: Not Active; inhibition (INH) [6]: Not Active; IC50 (Prostaglandin E synthase [7]): 3.5 nM; inhibition (INH) [8]: Not Active |
| O=C(O)c1ccccc1CC[C@@H]1CCC[C@@H]1NC(=O)C1CCN(c2ccc(C(F)(F)F)cn2)CC1 | 2 | 267 | 34 | 6 | 22 | – |
| O=C(O)c1ccc(Cl)cc1OC[C@@H]1CCC[C@@H]1NC(=O)C1CCN(c2ccc(C(F)(F)F)cc2)CC1 | 2 | 25 | 8 | 57 | 39 | – |
| O=C(O)c1ccccc1CC[C@@H]1CCC[C@@H]1NC(=O)C1CCN(c2ccc(C(F)(F)F)cc2)CC1 | 2 | 40 | 5 | 5 | 5 | – |
| CC(C)(C)C(=O)N[C@H]1CCC[C@H]1CNc1cc(Cl)ccc1C(=O)O | 43 | – | 8910 | – | – | – |
| O=C(O)c1ccc(Cl)cc1NC[C@@H]1CCC[C@@H]1NC(=O)C1CCN(c2ccccc2)CC1 | 2 | 1370 | 81 | 81 | 46 | inhibition (INH) [5]: Not Active; inhibition (INH) [6]: Not Active; IC50 (Prostaglandin E synthase [7]): 21 nM; inhibition (INH) [8]: Not Active |
| O=C(O)c1ccccc1CC[C@@H]1CCC[C@@H]1NC(=O)C1CCN(c2ccc(OC(F)(F)F)cc2)CC1 | 1 | 43 | 10 | 17 | 32 | – |
| O=C(O)c1cccnc1CC[C@@H]1CCC[C@@H]1NC(=O)C1CCN(c2ccc(C(F)(F)F)cc2)CC1 | 6 | 146 | 21 | 38 | – | – |

More lines, main results first:

| IC50 (Prostaglandin E synthase [1]) [nM] | IC80 [2] [nM] | IC50 (Prostaglandin E synthase [3]) [nM] | clearance [4] [mL/min/kg] | inhibition at 10 µM (CYP2C9) [%] | SMILES | other results |
| --- | --- | --- | --- | --- | --- | --- |
| 1 | 10 | 3 | 9 | 56 | Cc1ccc(C(=O)O)c(CC[C@@H]2CCC[C@@H]2NC(=O)C2CCN(c3ccc(C(F)(F)F)cc3)CC2)c1 | – |
| 1 | 24 | 6 | 31 | 14 | Cc1cccc2ccc(N3CCC(C(=O)N[C@H]4CCC[C@H]4CCc4ccccc4C(=O)O)CC3)nc12 | inhibition (INH) [9]: Not Active; inhibition (INH) [10]: Not Active; inhibition (INH) [11]: Not Active; inhibition (INH) [12]: Not Active; inhibition (INH) [13]: Not Active; Selectivity Index [14]: > 10000; Selectivity Index (Homo sapiens): > 10000; inhibition (INH) [15]: Not Active; clearance [16]: 6.5 mL/min/kg; Vd [17]: 4.8 L/kg; Vd [18]: 1.2 L/kg; Cmax [19]: 530 nM; Cmax [20]: 4000 nM; bioavailability [21]: 52%; Time (Rattus norvegicus): >12 h; Time (Canis familiaris): 24 h; bioavailability [22]: 68% |
| 1 | 5 | 1 | 16 | 51 | O=C(O)c1ccc(Cl)cc1CC[C@@H]1CCC[C@@H]1NC(=O)C1CCN(c2ccc(C(F)(F)F)cc2)CC1 | – |
| 1 | 41 | 6 | 12 | 40 | O=C(O)c1ccc(F)cc1CC[C@@H]1CCC[C@@H]1NC(=O)C1CCN(c2ccc(C(F)(F)F)cc2)CC1 | – |
